“And” between values parts separate entries of the source, which are not always exact repeats. Identical values can stand only once.
How the values were obtained:
[1] = set-up: method as in PMID 25679114; conditions: cited from earlier work
NOXA = NOXA levels by immunoblotting in HCC-1806 cells; type: cell-based; conditions: 8 h, up to 20 μM
Experimental: (§1) Figure 1 MCL-1 levels are elevated in cancer cells after treatment with MCL-1-binding small molecules. (a) H929 multiple myeloma cells were treated for 4 h with 10 μM A-1210477 before immunopreciptating MCL-1. […] A control H929 lysate was run in lane 1, and an immunoprecipitation with a non-specific antibody (Ig) was run in lane 2. The positions of molecular weight markers (specified in kiloDaltons) are indicated on the left. (b) HCC-1806 breast cancer cells were incubated with increasing concentrations of A-1210477 (0.1, 0.5, 1, 5, 10, 15, or 20 μM) or bortezomib (2, 10, or 50 nM) for 8 h before assessing MCL-1 and NOXA levels by immunoblotting. β-Actin was probed as a protein loading control. The lower graph depicts reverse transcriptase-PCR quantification of MCL1 mRNA from HCC-1806 cells treated for 8 h with similar concentrations of A-1210477. (c) HCC-1806 cells were incubated with increasing concentrations (0.1, 0.5, 1, 5, 10, and 20 μM) of A-954248, A-962653, or A-1248767 for 24 h before assessing MCL-1 and BCL-XL levels by immunoblotting. β-Actin was probed as a protein loading control
Cells were scraped into cold PBS, pelleted, and then resuspended in 100–200 μl ice-cold insect cell lysis buffer supplemented with protease inhibitors (BD Biosciences Pharmingen, San Diego, CA, USA). Cells were lysed by sonication, and the debris was cleared in a microcentrifuge. […]

MCL-1 = MCL-1 (Homo sapiens, UniProt Q07820); assay: TR-FRET binding affinity assay, MCL-1
MCL-1, sequence (Q07820 whole entry): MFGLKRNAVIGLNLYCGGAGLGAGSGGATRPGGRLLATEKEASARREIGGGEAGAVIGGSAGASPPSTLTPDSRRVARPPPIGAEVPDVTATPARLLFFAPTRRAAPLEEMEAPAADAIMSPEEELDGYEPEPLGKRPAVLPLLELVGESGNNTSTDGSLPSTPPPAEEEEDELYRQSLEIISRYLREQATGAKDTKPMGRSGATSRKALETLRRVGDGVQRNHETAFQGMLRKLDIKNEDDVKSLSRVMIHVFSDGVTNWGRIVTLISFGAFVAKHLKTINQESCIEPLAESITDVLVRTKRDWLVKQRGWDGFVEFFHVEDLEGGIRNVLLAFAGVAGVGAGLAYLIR
Experimental: TR-FRET-binding affinity assays were performed for BCL-2, BCL-XL, and MCL-1 in 4.52 mM monobasic potassium phosphate, 15.48 mM dibasic potassium phosphate, 1 mM sodium EDTA, 0.05% Pluronic F-68 detergent, 50 mM sodium chloride, and 1 mM DTT (pH 7.5) as described previously for BCL-XL.[6] For MCL-1 assays, GST-tagged MCL-1 (1 nM) was mixed with 100 nM f-Bak, 1 nM Tb-labeled anti-GST antibody, and compound at room temperature (RT) for 60 min. Fluorescence was measured on an Envision plate reader (Perkin-Elmer, Waltham, MA, USA) using a 340/35 nm excitation filter and 520/525 (f-Bak) and 495/510 nm (Tb-labeled anti-GST antibody) emission filters.

MCL-1–BIM complexes = target: T1, MCL-1–BIM complexes (Homo sapiens, UniProt Q07820); assay: MCL-1/BIM co-immunoprecipitation and immunoblot in H929 cells; type: cell-based; conditions: 10 μM, 4 h
T1 construct: endogenous in cells; host or cells: H929
T1 sequence (Q07820 whole entry, one chain of several): as the sequence (Q07820 whole entry) above
Experimental: as §1
Antibodies for MCL-1-BIM co-immunoprecipitation studies were obtained from Thermo Fisher Scientific (Waltham, MA, USA; anti-MCL-1 clone RC13) and Abcam (Cambridge, MA, USA; anti-BIM clone Y36). […]

MCL-1–NOXA interactions = target: T2, MCL-1–NOXA interactions (Homo sapiens, UniProt Q07820); assay: Mammalian two-hybrid assay, MCL-1–NOXA, HeLa cells; type: cell-based; conditions: 24 h, luciferase two-hybrid
T2 construct: expressed in transfected cells; host or cells: HeLa cells stably expressing a GAL4-luciferase reporter
T2 sequence (Q07820 whole entry, the tested form may be a part): as the sequence (Q07820 whole entry) above
Experimental: (§2) (a) H929 cells were treated with increasing concentrations of A-1210477 for 4 h. […] All data represent the mean of triplicate experiments, with error bars indicating the S.D. (b) Quantitative measurement of protein–protein interactions using a luciferase-based mammalian two-hybrid assay. […] All data represent the means of triplicate experiments, with error bars indicating the S.Ds.
(§3) HeLa cells stably expressing a GAL4-luciferase reporter were seeded into 10 cm dishes at 5 × 10^5 cells per plate. In all, 24 μg of a plasmid expressing both the ‘bait' and ‘prey' fusion proteins (GAL4DBD-BIM and VP16AD-BCL-2, GAL4DBD-BCL-XL and VP16AD- BCL-XS, or GAL4DBD-MCL-1 and VP16AD-NOXA, respectively) were mixed with 1.5 ml OptiMEM (Invitrogen). Separately, 24 μl Lipofectamine 2000 (Invitrogen) were mixed with 1.5 ml OptiMEM. Both solutions were incubated for 5 min (RT) and then mixed together for 20 min. Three milliliters of the mixture was added to cells in 12 ml culture medium lacking antibiotics, incubated at 37 °C for 24 h, and then transferred to 96-well plates at 20 000 cells per well. Compounds were added in half-log dilutions, starting from 1 μM and ending at 0.0001 μM for 24 h, and luciferase activity was assessed using ONE-Glo reagent (Promega). All data were plotted as the percentage of complex remaining relative to untreated controls.

BCL-2–BIM interactions = target: T3, BCL-2–BIM interactions (Homo sapiens, UniProt P10415); assay: Mammalian two-hybrid assay, BCL-2–BIM, HeLa cells; type: cell-based; conditions: 24 h, luciferase two-hybrid
T3 construct: expressed in transfected cells; host or cells: HeLa cells stably expressing a GAL4-luciferase reporter
T3 sequence (P10415 whole entry, the tested form may be a part): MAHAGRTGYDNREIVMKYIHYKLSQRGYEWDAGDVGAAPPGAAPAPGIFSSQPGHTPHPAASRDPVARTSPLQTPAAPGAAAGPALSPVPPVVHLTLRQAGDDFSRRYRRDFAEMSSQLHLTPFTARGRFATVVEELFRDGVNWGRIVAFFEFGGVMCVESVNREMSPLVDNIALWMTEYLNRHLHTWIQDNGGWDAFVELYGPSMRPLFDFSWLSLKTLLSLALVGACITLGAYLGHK
Experimental: as §2, §3

What does the source list for `Cc1nn(C)c(COc2ccc(N3CCN(S(=O)(=O)N(C)C)CC3)cc2)c1-c1cccc2c(CCCOc3cccc4ccccc34)c(C(=O)O)n(CCN3CCOCC3)c12` [A-1210477]?
human protein binding [1]: > 99%; effect on NOXA levels (NOXA): no effect; Ki (MCL-1): 0.4 to 0.5 nM and 0.454 nM; BIM co-immunoprecipitated with MCL-1 antibody (MCL-1–BIM complexes): reduce the amount of BIM co-immunoprecipitated; IC50 (MCL-1–NOXA interactions): ~1000 nM; effect on BCL-2–BIM interactions (BCL-2–BIM interactions): no effect
